Consider 20 compounds from US20190345138A1, “HETEROCYCLIC AMIDES AS KINASE INHIBITORS” (GlaxoSmithKline Intellectual Property Development Limited, priority 2016, published 2019).

Values joined by “and” are separate entries in the source; they are usually repeats but may differ in a detail not shown here. Identical values can stand only once. Like-named read-outs stand apart in the source and are kept apart here.

In one assay the target is T1, RIP1 kinase (Homo sapiens, UniProt Q13546).
T1 sequence (Q13546 1-375 limits assumed): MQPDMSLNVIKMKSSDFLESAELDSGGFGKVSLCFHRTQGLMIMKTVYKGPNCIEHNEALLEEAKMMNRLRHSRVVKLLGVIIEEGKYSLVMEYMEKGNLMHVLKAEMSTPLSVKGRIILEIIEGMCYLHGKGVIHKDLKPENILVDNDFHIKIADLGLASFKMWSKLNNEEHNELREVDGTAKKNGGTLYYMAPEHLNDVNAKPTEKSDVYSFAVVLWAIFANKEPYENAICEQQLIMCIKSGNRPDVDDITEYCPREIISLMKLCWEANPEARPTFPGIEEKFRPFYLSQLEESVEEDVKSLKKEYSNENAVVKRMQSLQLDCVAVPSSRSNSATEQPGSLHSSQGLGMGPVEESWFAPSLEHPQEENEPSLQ
The assay can be described thus: fluorescent polarization based binding assay. The settings on record: mean of a minimum of 2 experiments. From the text: A fluorescent polarization based binding assay was used to assess the activity of the compounds of this invention, the details of which are disclosed in International Patent Appln. No. PCT/IB2014/059004, now, International Patent Appln. Pub.

In assay [1] the test system is mouse L929 fibrosarcoma cells. The assay can be described thus: necroptosis assay in L929 cells. The format is cell-based. The settings on record: viability by cellular ATP (Cell Titer-Glo), read-out: pIC50, inhibited necrosis in L929 cells (converted). As to the method:
The efficacy of RIP1 inhibitors can be tested […] in vitro using a human monocytic leukemia U937 or mouse L929 fibrosarcoma cells in a necroptosis assay. As determined using the method described in S. He et al., Cell, 137(6):1100-1111 (2009) and International Patent Appln. No. PCT/IB2014/059004, now, International Patent Appln. Pub.
Viability was measured by quantitating cellular levels of ATP using the Cell Titer-Glo kit. All data are means±standard deviation of the mean.
Background: Cellular ATP, detected with luciferase, serves as a proxy for viable cell number.

For assay [2], the system named is human monocytic leukemia U937 cells. As to the kind of experiment: necroptosis assay in U937 cells. The format is cell-based. The settings on record: viability by cellular ATP (Cell Titer-Glo); for IC50: Homo sapiens, U-937, U937 cells, read-out: pIC50, inhibited necrosis in U937 cells (converted). The method, boiled down:
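Necroptosis was induced in human U937 or mouse L929 cells, and viability was quantified as cellular ATP with Cell Titer-Glo. Data are means±standard deviation.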

The test system of assay [3] is TNF-driven systemic inflammatory response syndrome model. As to the kind of experiment: TNF-driven systemic inflammatory response syndrome model (TNF/zVAD or TNF alone), temperature loss. The format is in vivo. The settings on record: Mus musculus, po, pre-dosed 15 minutes before i.v. mouse TNF alone or with zVAD; for inhibition in vivo at 10 mg/kg: 10 mg/kg PO. From the text:
The efficacy of RIP1 inhibitors can be tested in mice in vivo using a TNF-driven systemic inflammatory response syndrome model (L. Duprez et al. Immunity 35(6):908-918, (2011)) using TNF plus the caspase inhibitor zVAD or TNF alone. The TNF/zVAD model is terminated at ˜3 hrs and the TNF alone model is terminated at ˜8 hrs (under IACUC guidelines for temperature loss). TNF (or TNF/zVAD) induced manifestations include temperature loss, the production of numerous cytokines (including IL-6, IL-1b, MIP1β and MIP2) in the periphery, liver and intestinal inflammation and an increase of markers of cellular (LDH and CK) and liver damage (AST and ALT) in the serum. Inhibition of these TNF alone or TNF/zVAD induced manifestations can be shown by PO pre-dosing with selected compounds. For example, mice (8 mice per group) were pre-dosed PO with vehicle or compound 15 minutes before i.v. administration of mouse TNF (30 μg/mouse) alone or in combination with zVAD (0.4 mg/mouse) simultaneously. Temperature loss in the mice was measured by rectal probe. The study was terminated when the control group lost 7 degrees, per our IACUC protocol. All data are shown as means±standard error of the mean.

With `NC(=O)c1ccnc(N2CCC(C(=O)N3N=CC[C@H]3c3cc(F)cc(F)c3)CC2)n1` [Example 83, (S)-2-(4-(5-(3,5-difluorophenyl)-4,5-dihydro-1H-pyrazole-1-carbonyl)piperidin-1-yl)pyrimidine-4-carboxamide], the IC50 at RIP1 kinase is 0.001 to 0.0316 µM and 0.001 to 0.01 µM; in assay [1] (L929 cells) it was 0.001 to 0.1 µM; in assay [2] it was 0.001 to 0.1 µM.

Consider `Nc1nc(N2CCC(C(=O)N3N=CC[C@H]3c3ccccc3)CC2)ncc1F` [Example 27, (S)-(1-(4-amino-5-fluoropyrimidin-2-yl)piperidin-4-yl)(5-phenyl-4,5-dihydro-1H-pyrazol-1-yl)methanone], for which the IC50 at RIP1 kinase was 0.001 to 0.0316 µM and 0.001 to 0.01 µM; in assay [1] (L929 cells), 0.001 to 0.1 µM; in assay [2], 0.001 to 0.1 µM.

In the case of `O=C(O)c1ncnc(N2CCC(C(=O)N3N=CC[C@H]3c3ccccc3)CC2)c1F` [Example 159, (S)-5-fluoro-6-(4-(5-phenyl-4,5-dihydro-1H-pyrazole-1-carbonyl)piperidin-1-yl)pyrimidine-4-carboxylic acid], the results for the IC50 (at RIP1 kinase; in assay [1] (L929 cells)) were about 0.0501 µM and about 0.251 µM, respectively.

Regarding `O=C(C1CCN(c2nccc(SCc3ccccc3)n2)CC1)N1N=CC[C@H]1c1ccccc1` [Example 1, (S)-(1-(4-(benzylthio)pyrimidin-2-yl)piperidin-4-yl)(5-phenyl-4,5-dihydro-1H-pyrazol-1-yl)methanone], the IC50 in assay [1] (L929 cells) and in assay [2] was 0.001 to 0.1 µM throughout.

As to `N#Cc1cc(N2CCC(C(=O)N3N=CC[C@H]3c3cc(F)ccc3F)CC2)ncn1` [Example 104, (S)-6-(4-(5-(2,5-difluorophenyl)-4,5-dihydro-1H-pyrazole-1-carbonyl)piperidin-1-yl)pyrimidine-4-carbonitrile], the IC50 at RIP1 kinase is 0.001 to 0.0316 µM and 0.001 to 0.01 µM; in assay [1] (L929 cells), 0.001 to 0.1 µM; in assay [2], 0.001 to 0.1 µM.

For the compound `CC(=O)Nc1ccnc(N2CCC(C(=O)N3N=CC[C@H]3c3cc(F)ccc3F)CC2)n1` [Example 118, (S)—N-(2-(4-(5-(2,5-difluorophenyl)-4,5-dihydro-1H-pyrazole-1-carbonyl)piperidin-1-yl)pyrimidin-4-yl)acetamide], the figures for the IC50 (on RIP1 kinase; in assay [1] (L929 cells); in assay [2]) were 0.001 to 0.0316 µM, 0.001 to 0.1 µM and 0.001 to 0.1 µM, respectively.

Consider `Nc1cc(N2CCC(C(=O)N3N=CC[C@H]3c3ccccc3)CC2)ncn1` [Example 20, (S)-(1-(6-aminopyrimidin-4-yl)piperidin-4-yl)(5-phenyl-4,5-dihydro-1H-pyrazol-1-yl)methanone], for which the IC50 is 0.001 to 0.0316 µM and ~0.0158 µM on RIP1 kinase; about 1 µM in assay [1] (L929 cells). The inhibition in vivo (usually the change of the read-out against control, counted positive when it falls) at 10 mg/kg in assay [3] stood at 92%.

Take `NC(=O)c1nc(N2CCC(C(=O)N3N=CC[C@H]3c3ccccc3)CC2)ncc1F` [Example 162, (S)-5-fluoro-2-(4-(5-phenyl-4,5-dihydro-1H-pyrazole-1-carbonyl)piperidin-1-yl)pyrimidine-4-carboxamide]: the IC50 at RIP1 kinase is 0.001 to 0.0316 µM and 0.001 to 0.01 µM; in assay [1] (L929 cells), 0.001 to 0.1 µM; in assay [2], 0.001 to 0.1 µM.

Consider `C#Cc1cc(N2CCC(C(=O)N3N=CC[C@H]3c3ccccc3)CC2)ncn1` [Example 156, (S)-(1-(6-ethynylpyrimidin-4-yl)piperidin-4-yl)(5-phenyl-4,5-dihydro-1H-pyrazol-1-yl)methanone], for which the IC50 was 0.001 to 0.0316 µM and 0.001 to 0.01 µM at RIP1 kinase; 0.001 to 0.1 µM in assay [1] (L929 cells); 0.001 to 0.1 µM in assay [2].

For `N#Cc1cc(N2CCC(C(=O)N3N=CC[C@H]3c3ccccc3)CC2)ncn1` [Example 14, (S)-6-(4-(5-phenyl-4,5-dihydro-1H-pyrazole-1-carbonyl)piperidin-1-yl)pyrimidine-4-carbonitrile], the IC50 on RIP1 kinase was 0.001 to 0.0316 µM and 0.001 to 0.01 µM; in assay [1] (L929 cells) it was 0.001 to 0.1 µM; in assay [2], 0.001 to 0.1 µM.

Turning to `Cc1nnc(N2CCC(C(=O)N3N=CC[C@H]3c3cc(F)cc(F)c3)CC2)o1` [Example 77, (S)-(5-(3,5-difluorophenyl)-4,5-dihydro-1H-pyrazol-1-yl)(1-(5-methyl-1,3,4-oxadiazol-2-yl)piperidin-4-yl)methanone], the IC50 in assay [1] (L929, L929 cells) was about 3.16 µM. For the same compound, in assay [2] (U937 cells), the “pIC50, inhibited necrosis in U937 cells” value was about 7.2.

As for `NC(=O)c1ccnc(N2CCC(C(=O)N3N=CC[C@H]3c3cncc(F)c3)CC2)n1` [Example 109, (S)-2-(4-(5-(5-fluoropyridin-3-yl)-4,5-dihydro-1H-pyrazole-1-carbonyl)piperidin-1-yl)pyrimidine-4-carboxamide], the IC50 is 0.001 to 0.0316 µM and ~0.0251 µM at RIP1 kinase; about 0.251 µM in assay [1] (L929 cells). In addition, the inhibition in vivo at 3 mg/kg in assay [3] (3 mg/kg PO) turned out to be 84%.

In the case of `N#Cc1nccc(N2CCC(C(=O)N3N=CC[C@H]3c3cc(F)cc(F)c3)CC2)n1` [Example 89, (S)-4-(4-(5-(3,5-difluorophenyl)-4,5-dihydro-1H-pyrazole-1-carbonyl)piperidin-1-yl)pyrimidine-2-carbonitrile], the IC50 in assay [1] (L929, L929 cells) was 0.001 to 0.1 µM; in assay [2] it was 0.001 to 0.1 µM.

On to `CC(=O)Nc1ccnc(N2CCC(C(=O)N3N=CC[C@H]3c3ccccc3)CC2)n1` [Example 36, (S)-N-(2-(4-(5-phenyl-4,5-dihydro-1H-pyrazole-1-carbonyl)piperidin-1-yl)pyrimidin-4-yl)acetamide], for which the IC50 on RIP1 kinase was 0.001 to 0.0316 µM and 0.001 to 0.01 µM; in assay [1] (L929 cells), 0.001 to 0.1 µM; in assay [2], 0.001 to 0.1 µM.

For the compound `O=C(C1CCN(c2ncc3cn[nH]c3n2)CC1)N1N=CC[C@H]1c1cc(F)cc(F)c1` [Example 86, (S)-(1-(1H-pyrazolo[3,4-d]pyrimidin-6-yl)piperidin-4-yl)(5-(3,5-difluorophenyl)-4,5-dihydro-1H-pyrazol-1-yl)methanone], the IC50 in assay [1] (L929 cells) and in assay [2] was 0.001 to 0.1 µM in each case.

For the compound `NC(=O)c1cc(N2CCC(C(=O)N3N=CC[C@H]3c3ccccc3)CC2)ncn1` [Example 32, (S)-6-(4-(5-phenyl-4,5-dihydro-1H-pyrazole-1-carbonyl)piperidin-1-yl)pyrimidine-4-carboxamide], the IC50 on RIP1 kinase was 0.001 to 0.0316 µM and 0.001 to 0.01 µM and ~0.01 µM; in assay [1] (L929 cells), about 0.316 µM. Moreover, in assay [3], the inhibition in vivo at 10 mg/kg turned out to be 104%.

Regarding `O=C(C1CCN(c2ncc3cn[nH]c3n2)CC1)N1N=CC[C@H]1c1ccccc1` [Example 52, (S)-(1-(1H-pyrazolo[3,4-d]pyrimidin-6-yl)piperidin-4-yl)(5-phenyl-4,5-dihydro-1H-pyrazol-1-yl)methanone], the IC50 at RIP1 kinase was 0.001 to 0.0316 µM and 0.001 to 0.01 µM; in assay [1] (L929 cells) it was 0.001 to 0.1 µM; in assay [2], 0.001 to 0.1 µM.

On to `Nc1nc(N2CCC(C(=O)N3N=CC[C@H]3c3cc(F)cc(F)c3)CC2)ncc1F` [Example 81, (S)-(1-(4-amino-5-fluoropyrimidin-2-yl)piperidin-4-yl)(5-(3,5-difluorophenyl)-4,5-dihydro-1H-pyrazol-1-yl)methanone], for which the IC50 on RIP1 kinase is 0.001 to 0.0316 µM and 0.001 to 0.01 µM; in assay [1] (L929 cells) it was 0.001 to 0.1 µM; in assay [2], 0.001 to 0.1 µM.

With `NC(=O)c1ccnc(N2CCC(C(=O)N3N=CC[C@H]3c3ccccc3)CC2)n1` [Example 28, (S)-2-(4-(5-phenyl-4,5-dihydro-1H-pyrazole-1-carbonyl)piperidin-1-yl)pyrimidine-4-carboxamide], the IC50 on RIP1 kinase is 0.001 to 0.0316 µM and 0.001 to 0.01 µM; in assay [1] (L929 cells), 0.001 to 0.1 µM; in assay [2], 0.001 to 0.1 µM.

As for `NC(=O)c1ccnc(N2CCC(C(=O)N3N=CC[C@H]3c3cc(F)ccc3F)CC2)n1` [Example 102, (S)-2-(4-(5-(2,5-difluorophenyl)-4,5-dihydro-1H-pyrazole-1-carbonyl)piperidin-1-yl)pyrimidine-4-carboxamide], the IC50 on RIP1 kinase was 0.001 to 0.0316 µM and 0.001 to 0.01 µM; in assay [1] (L929 cells), 0.001 to 0.1 µM; in assay [2], 0.001 to 0.1 µM.
